Tests used:
[1] = test system: laser-induced angiogenesis; test: Fundus fluorescein angiography (FFA) of laser-induced choroidal neovascularization in mice, vitreous injection; type: in vivo, C57BL/6 mice; conditions: for angiogenesis index (relative average fluorescence leakage ratio vs Day 0): vitreous injection, mean±S.E.M.; for FFA quantified values, difference to other groups: Eylea 40 μg/eye/μL, p<0.01 (FIG. 2D)
Procedure: (§1) Beauvericin (BEA), named GYT088 in this trail, was supplied by Shiyuantang Biotechnology Co. 5 mg of BEA (molecular weight 783.96) was dissolved in DMSO at a stock concentration of 50 mM, and then diluted to 100 μM with saline. Before injection, the sample was diluted to 1.6, 3.2, and 6.4 μM in saline, and then administered to the low, medium, and high-dose groups, which were equivalent to 1.28, 2.56, and 5.12 ng/eye, respectively, based on a vitreous volume of 4 μl in mice (wherein the injection volume is 1 μl); converted to the human doses of 1.28, 2.56, 5.12 μg/eye as the low, medium and high dose levels, respectively, based on a vitreous volume of 4-4.5 ml in human.
(§2) Male C57BL/6 mice from BioLASCO Taiwan CO., Ltd. at 7-8 weeks of age, with an average body weight of 17-20 g, were used in this study. The mice were housed in the Animal Room of the National Taipei Medical University for more than 5 days before the start of the experiment. The incubation temperature was set at 23±1° C., the humidity was set at 39˜43%, and the automated light control system maintained 12 hours of light and 12 hours of darkness. The feed was Rodent diet 5001 (Purina, MO, USA) and drinking water was supplied indefinitely.
(§3) After the adaptation period, the retina was cauterized with laser light (day 0), and the degree of retinal damage was confirmed by fundus photography (FP), fluorescein fundus angiography (FFA), and frequency-domain optical […] (SD-OCT) on the same day (FIG. 1). The mice were randomly divided into five groups and given vitreous injections of the corresponding drugs, including (1) control group, (2) positive control group: Eylea (40 μg/eye/μL), (3-5) GYT088 treatment groups at low-dose (1.28 ng/eye), medium-dose (2.56 ng/eye), and high-dose ([…]). Five mice in each group were clinically observed daily, and retinal injury repair was examined at Day 7 and Day 14.
Mice were deeply anesthetized and pupils were dilated. A Micron III retinal imaging microscope (Phoenix, San Ramon, CA, USA) was used to adjust the focal length, and the central socket of the mice was placed in the center of the fundus lens to capture fundus photography (FP), and then 10% sodium fluorescein solution was injected intraperitoneally, and retinal angiography was performed with a 520 nm filter to capture continuous images for analysis. After the administration of drugs, the FP, FFA, and SD-OCT results were observed once a week at Day 0 and recorded until Day 14. Sharp images were selected for analysis and imported into […] using ImageJ, and the software automatically quantified the pixel value and area of the fundus region by removing the background values. Due to differences in individual retinal structures, post-laser wound healing varies and overexposure of signals in the area may occur. If fluorescence leakage occurs outside of the location of direct laser damage, it is considered to be a phenomenon of fundus neovascularization. Therefore, the quantification was performed by randomly selecting three fixed areas of the fluorescence leakage area that were not laser-damaged areas.

[2] = test system: retinal sublayer structure; test: SD-OCT damage score of the retinal sublayer structure after laser injury in mice, vitreous injection; type: in vivo, C57BL/6 mice; conditions: for SD-OCT quantified values, difference to other groups: p<0.01 (FIG. 3D)
Procedure: as §1, §2, §3
The OCT (Phoenix Research Laboratories, San Ramon, CA) imaging system used in this experiment is based on the principle of frequency-domain optical homodyne tomography. The computerized tomography (CT) scan was divided into three layers: the first layer was from the nerve fiber layer (NFL) to the inner nuclear layer (INL), the second layer was from the INL to the inner segment/outer segment (IS/OS), and the third layer was from the IS/OS to the retinal pigment epithelium (RPE). The damage was scored according to the retinal sublayer structure in a double-blind trail, and the mean value of the scores was taken as the index value of the damage after each score was made by 3 persons.

Which “angiogenesis index (relative average fluorescence leakage ratio vs Day 0)” value ([1]; Day 7, high-dose 5.12 ng/eye, p<0.05) does the source give for `CC(C)[C@H]1OC(=O)[C@H](Cc2ccccc2)N(C)C(=O)[C@@H](C(C)C)OC(=O)[C@H](Cc2ccccc2)N(C)C(=O)[C@@H](C(C)C)OC(=O)[C@H](Cc2ccccc2)N(C)C1=O` [GYT088, beauvericin] here?
Its value is 1.53±0.17 times.

What about the “angiogenesis index (relative average fluorescence leakage ratio vs Day 0)” value ([1]; Day 7, low-dose 1.28 ng/eye) of the same compound?
The value was 1.92±0.21 times.

What about the “angiogenesis index (relative average fluorescence leakage ratio vs Day 0)” value ([1]; Day 7, medium-dose 2.56 ng/eye) of the same compound?
The value was 1.59±0.22 times.

And the “angiogenesis index (relative average fluorescence leakage ratio vs Day 0)” value ([1]; Day 14, high-dose 5.12 ng/eye, p<0.01)?
Its value is 1.63±0.16 times.

What about the “angiogenesis index (relative average fluorescence leakage ratio vs Day 0)” value ([1]; Day 14, low-dose 1.28 ng/eye) of the same compound?
The value was 2.46±0.18 times.

And the “angiogenesis index (relative average fluorescence leakage ratio vs Day 0)” value ([1]; Day 14, medium-dose 2.56 ng/eye, p<0.01)?
Its value is 1.79±0.17 times.

And the “damage score compared with control group” value ([2]; Day 14, high-dose 5.12 ng/eye, vitreous injection)?
The value was “significantly lower than control group”.

What about the “SD-OCT quantified values, difference to other groups” value (“SD-OCT quantified values, difference” below) ([2]; Day 14, low-dose 1.28 ng/eye) of the same compound?
The value was “significant difference”.

And the “SD-OCT quantified values, difference” value ([2]; Day 14, mid-dose 2.56 ng/eye)?
Its value is “significant difference”.

With “Eylea: positive control group: Eylea (40 μg/eye/μL), vitreous injection [reference compound]” as the compound, how does the “FFA quantified values, difference to other groups” value ([1]; Day 7) read?
Its value is “significant difference”.

What about the “FFA quantified values, difference to other groups” value ([1]; Day 14) of the same compound?
Its value is “significant difference”.

And the “damage score (scale 0-4)” value ([2]; Day 7, Eylea 40 μg/eye/μL, vitreous injection, control 1.38±0.17)?
The value was 0.80±0.13.

What about the “SD-OCT quantified values, difference” value ([2]; Day 14, Eylea 40 μg/eye/μL) of the same compound?
The value was “significant difference”.

From patent US20240316144A1, “PHARMACEUTICAL COMPOSITION AND METHOD FOR INHIBITING ANGIOGENESIS” (ZIH YUAN TANG Biotechnology Co, Ltd., priority 2023, published 2024)
